Laboratory results published in the NIST ThermoML archive (doi:10.1016/j.tca.2014.11.028).
Numbers after ± are expanded uncertainties.

Assays:
[1] = xn = mol fraction of the nth substance listed; conditions: 101 kPa, Liquid, Vibrating tube method
[2] = 101 kPa, Liquid, Vibrating tube method

O=C(O)CC(=O)O [propanedioic acid] + C[N+](C)(C)CCO.[Cl-]
[1], x2 = 0.3333
Conditions | mass density [kg/m3]
283.15 K | 1191.5 ± 1.1
293.15 K | 1185.1 ± 1.1
303.15 K | 1178.6 ± 1.1
313.15 K | 1172.3 ± 1.1
323.15 K | 1166 ± 1.1
333.15 K | 1160.3 ± 1.1
343.15 K | 1154 ± 1.1
353.15 K | 1146.6 ± 1.1
363.15 K | 1138.8 ± 1.1

C[N+](C)(C)CCO.[Cl-] [choline chloride] + OCCO
[1], x1 = 0.3333
Conditions | mass density [kg/m3]
283.15 K | 1122.9 ± 1.1
293.15 K | 1117.1 ± 1.1
303.15 K | 1111.4 ± 1.1
313.15 K | 1105.7 ± 1.1
323.15 K | 1100.1 ± 1.1
333.15 K | 1094.7 ± 1.1
343.15 K | 1088.7 ± 1.1
353.15 K | 1081.9 ± 1.1
363.15 K | 1074.4 ± 1.1

O [water]
[2]
Conditions | mass density [kg/m3]
283.15 K | 999.7 ± 1
323.15 K | 988 ± 1
333.15 K | 983.2 ± 1
343.15 K | 977.8 ± 1
353.15 K | 971.7 ± 1
363.15 K | 965 ± 1
